Article PMC11240139, “Exploring the antitumor potential of novel quinoline derivatives via tubulin polymerization inhibition in breast cancer; design, synthesis and molecular docking” (RSC Advances, 2024)

Assays:
Assay type in all cases: cell-based
A498 (renal cancer) = assay: NCI-60 SRB cytotoxicity screen; details: Homo sapiens; A498, single dose 10 μM; read-out: growth inhibition (GI%)
HT29 (colon cancer) = assay: NCI-60 SRB cytotoxicity screen; details: Homo sapiens, HT-29; HT29, single dose 10 μM; read-out: growth inhibition (GI%)
TK-10 (renal cancer) = assay: NCI-60 SRB cytotoxicity screen; details: Homo sapiens; TK-10, single dose 10 μM; read-out: growth inhibition (GI%)
CAKI-1 (renal cancer) = assay: NCI-60 SRB cytotoxicity screen; details: Homo sapiens; CAKI-1, single dose 10 μM; read-out: growth inhibition (GI%)
M14 (melanoma) = assay: NCI-60 SRB cytotoxicity screen; details: Homo sapiens; M14, single dose 10 μM; read-out: growth inhibition (GI%)
HCC-2998 (colon cancer) = assay: NCI-60 SRB cytotoxicity screen; details: Homo sapiens; HCC-2998, single dose 10 μM; read-out: growth inhibition (GI%)
MOLT-4 (leukemia) = assay: NCI-60 SRB cytotoxicity screen; details: Homo sapiens; MOLT-4, single dose 10 μM; read-out: growth inhibition (GI%)
[1] = test system: NCI-H460 (non-small cell lung cancer); assay: NCI-60 SRB cytotoxicity screen; details: Homo sapiens; NCI-H460, single dose 10 μM; read-out: growth inhibition (GI%)
[2] = test system: MDA-MB-231/ATCC (breast cancer); assay: NCI-60 SRB cytotoxicity screen; details: Homo sapiens, MDA-MB-231, read-out: growth inhibition (GI%);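 note: growth inhibition in percent at a single 10 µM dose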
[3] = test system: 60 cancer cell lines (NCI); assay: NCI-60 single-dose screen, overall verdict over the panel; details: single dose 10 μM, whole panel
Method: (§1) The cytotoxic activity of the synthesized quinoline derivatives was determined by the national cancer institute (NCI, Bethesda, Maryland, USA) against 60 different cancer cell lines at a single high dose (10^−5 M) in the full NCI 60 cell panel using the sulforhodamine B assay for cell viability evaluation. In summary, 5 × 10^3 cells were in 96-well plate and incubated in complete media for 24 h. Cells were treated with 100 μL of media containing each newly synthesized compound. After drug exposure, cells were fixed by replacing media with 150 μL of 10% TCA and incubated at 4 °C for 1 h. The TCA solution was removed, and the cells were washed 5 times with distilled water. Aliquots of 70 μL SRB solution (0.4% w/v) were added and incubated in a dark place at room temperature for 10 min. The plates were washed 3 times with 1% acetic acid and allowed to air-dry overnight. Then, 150 μL of TRIS (10 mM) was added to dissolve protein-bound SRB stain. The absorbance was measured at 540 nm.% Cytotoxicity = [1 − (AVx/AVNC)] × 100where AVx denotes the average absorbance of the sample well and AVNC denotes the average absorbance of the negative control.

[4] = test system: HOP-92 (non-small cell lung cancer); assay: NCI-60 SRB cytotoxicity screen; details: Homo sapiens; HOP-92, single dose 10 μM; read-out: growth inhibition (GI%)
OVCAR-4 (ovarian cancer) = assay: NCI-60 SRB cytotoxicity screen; details: Homo sapiens; OVCAR-4, single dose 10 μM; read-out: growth inhibition (GI%)
[5] = test system: NCI-H322M (non-small cell lung cancer); assay: NCI-60 SRB cytotoxicity screen; details: Homo sapiens, single dose 10 μM, read-out: growth inhibition (GI%)
[6] = test system: NCI-H226 (non-small cell lung cancer); assay: NCI-60 SRB cytotoxicity screen; details: Homo sapiens; NCI-H226, single dose 10 μM; read-out: growth inhibition (GI%)
HL-60(TB) (leukemia) = assay: NCI-60 SRB cytotoxicity screen; details: Homo sapiens, single dose 10 μM, read-out: growth inhibition (GI%)
786-0 (renal cancer) = assay: NCI-60 SRB cytotoxicity screen; details: Homo sapiens; 786-0, single dose 10 μM; read-out: growth inhibition (GI%)
UO-31 (renal cancer) = assay: NCI-60 SRB cytotoxicity screen; details: Homo sapiens; UO-31, single dose 10 μM; read-out: growth inhibition (GI%)
[7] = test system: MDA-MB-468 (breast cancer); assay: NCI-60 SRB cytotoxicity screen; details: Homo sapiens; MDA-MB-468, single dose 10 μM; read-out: growth inhibition (GI%)
Method: as §1
The methodology of the NCI anticancer screening has been described in details at (http://www.dtp.nci.nih.gov). The anticancer assay was performed in full NCI 60 cell lines derived from nine tumor subpanels, including leukemia, lung, colon, CNS, melanoma, ovarian, renal, prostate, and breast cancer cell lines.
The cell lines were first cultured for 48 h, after being exposed to a single dosage of the compound. Using the protein-binding dye sulforhodamine B dye, cell proliferation and viability were evaluated (SRB assay). The results were presented for each chemical as GI%. Compound that met NCI criteria for substantial activity were further evaluated using a five-dose experiment. The NCI60 cell lines were treated with the chemicals in this assay at five different concentration levels (0.01, 0.1, 1, 10, and 100 μM).

SNB-19 (CNS cancer) = assay: NCI-60 SRB cytotoxicity screen; details: Homo sapiens; SNB-19, single dose 10 μM; read-out: growth inhibition (GI%)
SK-MEL-28 (melanoma) = assay: NCI-60 SRB cytotoxicity screen; details: Homo sapiens; SK-MEL-28, single dose 10 μM; read-out: growth inhibition (GI%)
MDA-MB-435 (melanoma) = assay: NCI-60 SRB cytotoxicity screen; details: Homo sapiens, MDA-MB-435, read-out: growth inhibition (GI%);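 note: growth inhibition in percent at a single 10 µM dose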
MCF7 (breast cancer) = assay: NCI-60 SRB cytotoxicity screen; details: Homo sapiens; MCF7, single dose 10 μM; read-out: growth inhibition (GI%)
SF-539 (CNS cancer) = assay: NCI-60 SRB cytotoxicity screen; details: Homo sapiens; SF-539, single dose 10 μM; read-out: growth inhibition (GI%)
SN12C (renal cancer) = assay: NCI-60 SRB cytotoxicity screen; details: Homo sapiens, single dose 10 μM, read-out: growth inhibition (GI%)
[8] = test system: NCI-H23 (non-small cell lung cancer); assay: NCI-60 SRB cytotoxicity screen; details: Homo sapiens; NCI-H23, single dose 10 μM; read-out: growth inhibition (GI%)
SW-620 (colon cancer) = assay: NCI-60 SRB cytotoxicity screen; details: Homo sapiens; SW-620, single dose 10 μM; read-out: growth inhibition (GI%)
U251 (CNS cancer) = assay: NCI-60 SRB cytotoxicity screen; details: Homo sapiens, U-251; U251, single dose 10 μM; read-out: growth inhibition (GI%)
SK-MEL-5 (melanoma) = assay: NCI-60 SRB cytotoxicity screen; details: Homo sapiens; SK-MEL-5, single dose 10 μM; read-out: growth inhibition (GI%)
PC-3 (prostate cancer) = assay: NCI-60 SRB cytotoxicity screen; details: PC-3, single dose 10 μM; read-out: growth inhibition (GI%)
HCT-116 (colon cancer) = assay: NCI-60 SRB cytotoxicity screen; details: Homo sapiens; HCT-116, single dose 10 μM; read-out: growth inhibition (GI%)
OVCAR-3 (ovarian cancer) = assay: NCI-60 SRB cytotoxicity screen; details: Homo sapiens; OVCAR-3, single dose 10 μM; read-out: growth inhibition (GI%)

SMILES: CCc1cccc2cc(-c3cc(-c4ccc(F)cc4)[nH]c(=S)c3C#N)c(Cl)nc12 [Compound 5d, 4-(2-Chloro-8-ethylquinolin-3-yl)-6-(4-fluorophenyl)-2-thioxo-1,2-dihydropyridine-3-carbonitrile]
- inhibition at 10 µM (A498 (renal cancer)): < 10%
- inhibition at 10 µM (HT29 (colon cancer)): < 10%
- inhibition at 10 µM (TK-10 (renal cancer)): < 10%
- inhibition at 10 µM (CAKI-1 (renal cancer)): 31.1%
- inhibition at 10 µM (M14 (melanoma)): < 10%
- inhibition at 10 µM (HCC-2998 (colon cancer)): < 10%
- inhibition at 10 µM (MOLT-4 (leukemia)): 26.8%
- inhibition at 10 µM [1]: < 10%
- inhibition at 10 µM [2]: 31.2%
- cytotoxic activity over the cell lines (in words) [3]: slight cytotoxic activity
- inhibition at 10 µM [4]: 11.4%
- inhibition at 10 µM (OVCAR-4 (ovarian cancer)): 13.3%
- inhibition at 10 µM [5]: 12.4%
- inhibition at 10 µM [6]: 25.9%
- inhibition at 10 µM (HL-60(TB) (leukemia)): < 10%
- inhibition at 10 µM (786-0 (renal cancer)): < 10%
- inhibition at 10 µM (UO-31 (renal cancer)): 40.1%
- inhibition at 10 µM [7]: 14%
- inhibition at 10 µM (SNB-19 (CNS cancer)): 10.5%
- inhibition at 10 µM (SK-MEL-28 (melanoma)): < 10%
- inhibition at 10 µM (MDA-MB-435 (melanoma)): < 10%
- inhibition at 10 µM (MCF7 (breast cancer)): 40.4%
- inhibition at 10 µM (SF-539 (CNS cancer)): < 10%
- inhibition at 10 µM (SN12C (renal cancer)): < 10%
- inhibition at 10 µM [8]: 16.4%
- inhibition at 10 µM (SW-620 (colon cancer)): < 10%
- inhibition at 10 µM (U251 (CNS cancer)): < 10%
- inhibition at 10 µM (SK-MEL-5 (melanoma)): 15.3%
- inhibition at 10 µM (PC-3 (prostate cancer)): 4.57%
- inhibition at 10 µM (HCT-116 (colon cancer)): < 10%

SMILES: CCc1cccc2cc(-c3cc(-c4ccc(Br)cc4)[nH]c(=S)c3C#N)c(Cl)nc12 [Compound 5e, 6-(4-Bromophenyl)-4-(2-chloro-8-ethylquinolin-3-yl)-2-thioxo-1,2-dihydropyridine-3-carbonitrile]
- inhibition at 10 µM (A498 (renal cancer)): < 10%
- inhibition at 10 µM (HT29 (colon cancer)): < 10%
- inhibition at 10 µM (TK-10 (renal cancer)): < 10%
- inhibition at 10 µM (CAKI-1 (renal cancer)): 20.1%
- inhibition at 10 µM (M14 (melanoma)): 11%
- inhibition at 10 µM (HCC-2998 (colon cancer)): < 10%
- inhibition at 10 µM (MOLT-4 (leukemia)): < 10%
- inhibition at 10 µM [1]: < 10%
- inhibition at 10 µM [2]: 12.9%
- cytotoxic activity over the cell lines (in words) [3]: slight cytotoxic activity
- inhibition at 10 µM [4]: < 10%
- inhibition at 10 µM (OVCAR-4 (ovarian cancer)): < 10%
- inhibition at 10 µM [5]: < 10%
- inhibition at 10 µM [6]: < 10%
- inhibition at 10 µM (HL-60(TB) (leukemia)): < 10%
- inhibition at 10 µM (786-0 (renal cancer)): < 10%
- inhibition at 10 µM (UO-31 (renal cancer)): 24.1%
- inhibition at 10 µM [7]: < 10%
- inhibition at 10 µM (SNB-19 (CNS cancer)): < 10%
- inhibition at 10 µM (SK-MEL-28 (melanoma)): < 10%
- inhibition at 10 µM (MDA-MB-435 (melanoma)): < 10%
- inhibition at 10 µM (MCF7 (breast cancer)): 19.7%
- inhibition at 10 µM (SF-539 (CNS cancer)): < 10%
- inhibition at 10 µM (SN12C (renal cancer)): < 10%
- inhibition at 10 µM [8]: < 10%
- inhibition at 10 µM (SW-620 (colon cancer)): < 10%
- inhibition at 10 µM (U251 (CNS cancer)): < 10%
- inhibition at 10 µM (OVCAR-3 (ovarian cancer)): < 10%
- inhibition at 10 µM (SK-MEL-5 (melanoma)): < 10%
- inhibition at 10 µM (PC-3 (prostate cancer)): < 10%
- inhibition at 10 µM (HCT-116 (colon cancer)): < 10%
